Patent US4343816A, “Pharmaceutical composition comprising an acyl-carnitine, for treating peripheral vascular diseases” (priority 1979, dated 1982)

assay: in vivo; conditions: mouse, iv
Description: As is known, carnitine contains an asymetrical carbon atom and consequently exists in two stereoisomer forms.

Row | Compound | LD50 [mg/kg]
1 | C[N+](C)(C)CC(CC(=O)[O-])OC(=O)CCC(=O)O (stereo not drawn) [succinyl-carnitine] | 780
2 | CC(=O)CC(=O)OC(CC(=O)[O-])C[N+](C)(C)C (stereo not drawn) [acetoacetyl-carnitine] | 728
3 | CC(O)CC(=O)OC(CC(=O)[O-])C[N+](C)(C)C (stereo not drawn) [hydroxybutyryl-carnitine] | 745
4 | CC(=O)OC(CC(=O)[O-])C[N+](C)(C)C (stereo not drawn) [acetyl-carnitine] | 770
5 | CC(C)CC(=O)OC(CC(=O)[O-])C[N+](C)(C)C (stereo not drawn) [isovaleryl-carnitine] | 743

assay: Tolerance and toxicity (general statement); conditions: racemic mixture or separated optically active forms, whatever the route of administration

Row | Compound | tolerance
6 | CC(=O)OC(CC(=O)[O-])C[N+](C)(C)C (stereo not drawn) [acetyl-carnitine] | excellent
